Data on 11 molecules can be found in PMC12074337, “Isolation and Characterization of Earthworm Peptides with Neuroprotective Effects in Parkinson’s Disease Models” (Molecules, 2025).

Like-named read-outs stand apart in the source and are kept apart here. No end group written: not given here.

One test concerns the target T1, PINK1 (Tribolium castaneum, UniProt D6WMX4).
T1 construct: made in house
T1 sequence (D6WMX4 6-570): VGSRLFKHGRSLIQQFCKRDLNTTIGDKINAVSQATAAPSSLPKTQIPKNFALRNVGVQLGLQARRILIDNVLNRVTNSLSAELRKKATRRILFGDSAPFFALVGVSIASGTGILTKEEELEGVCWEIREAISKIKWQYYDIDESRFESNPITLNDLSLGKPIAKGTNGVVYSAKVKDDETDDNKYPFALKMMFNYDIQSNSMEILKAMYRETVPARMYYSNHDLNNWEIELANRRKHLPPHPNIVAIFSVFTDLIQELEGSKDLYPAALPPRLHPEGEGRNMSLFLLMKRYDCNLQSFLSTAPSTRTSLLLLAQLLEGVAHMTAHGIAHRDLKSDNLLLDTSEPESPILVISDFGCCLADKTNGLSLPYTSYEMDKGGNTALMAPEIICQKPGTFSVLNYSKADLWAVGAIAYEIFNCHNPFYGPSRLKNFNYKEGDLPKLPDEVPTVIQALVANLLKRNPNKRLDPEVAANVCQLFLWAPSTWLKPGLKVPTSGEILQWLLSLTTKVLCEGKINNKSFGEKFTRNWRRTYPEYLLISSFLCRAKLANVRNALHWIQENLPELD
Briefly: biochemical. Type of test: biochemical. The conditions noted are these: for PINK1 agonistic rate: 100 μM. How it is done:
The earthworms (Lumbricus terrestris) were purchased from Beijing Tongrentang Co., Ltd. (Chengdu, China). They were dried by the supplier through sun-drying and stored at 4 °C. The shelf life is one year. Rasagiline was purchased from Aladdin Biochemical Technology Co., Ltd. (Shanghai, China). Resveratrol was purchased from Pusi Biotechnology Co., Ltd. (Chengdu, China). The SH-SY5Y cells were obtained from the National Collection of Authenticated Cell Cultures (Shanghai, China). […] Dulbecco’s modified Eagle’s medium/Ham’s F-12 (DMEM/F12), fetal bovine serum (FBS), and phosphate-buffered saline (PBS) were purchased from Biological Industries (Kibbutz Beit HaEmek, Israel). Fluorescein diacetate (FDA), propidium iodide (PI) staining and mitochondrial membrane potential test kit (JC-1) were purchased from Beijing Solarbio Science & Technology Co., Ltd. (Beijing, China). Cell Counting Kit-8 (CCK-8) was purchased from Bimake Co., Ltd. (Shanghai, China). PrimeScript RT reagent kit and PerfectStart Green PCR Master Mix were purchased from TransGen Biotech (Beijing, China). […] The Kinase-Lumi™ Luminescent Kinase Assay Kit and ATP Assay Kit were purchased from Beyotime Biotechnology Co., Ltd. (Wuhan, China). The Insect dopamine (DA) ELISA Kit was purchased from Jiangsu Meimian Industrial Co., Ltd. (Yancheng, Jiangsu, China). HPLC-grade methanol was supplied by XLJ (Yunnan, China). Ultrapure water used in the experiment was prepared using a UP water purification (18.25 MΩ) system (Chengdu, China). Unless otherwise specified, chemicals and solvents were purchased from Kelong Chemical Reagents Factory (Chengdu, China).
The PINK1 activity assay was conducted with certain modifications based on the described by. Ubiquitin is a potent substrate for PINK1, which catalyzes the phosphorylation of ubiquitin while consuming ATP [33]. During the reaction, the consumption of ATP is associated with PINK1 activity. […] The enzymatic reaction was conducted on a white 96-well plate, with all samples dissolved in a buffer solution containing 50 mM Tris-HCl (pH = 7.5), 0.1 mM EDTA, 10 mM MgCl2, and 4% 2-hydroxy-1-ethanethiol. Subsequently, 10 μL of peptide sample, 10 μL of PINK1 (6.8 μM), 10 μL of ubiquitin (0.002 pg/mL), and 20 μL of ATP (10 μM) were added to the plate for incubation at a temperature of 25 °C for a duration of ten minutes. In addition, the blank control group replaces the peptide with a buffer solution. The resveratrol was employed as a positive control. The amount of ATP consumed was detected using the Kinase-Lumi™ Luminescent Kinase Assay Kit. The PINK1 agonistic rate was calculated by the following equation:(1) PINK1 agonistic rate (%)=(1−A−B/C−D)×100% where A represents the absorbance of the sample group consisting of the sample, PINK1, ubiquitin, and ATP; B represents the absorbance of the sample control group consisting of the sample, PINK1, and ubiquitin; C represents the absorbance of the control group consisting of PINK1, ubiquitin, and ATP; D represents the absorbance of the blank control group consisting of PINK1 and ubiquitin. The EC50 of each peptide was calculated using GraphPad Prism, version 10.0.2 software.

The test system of test [1] is PINK1^B9 flies. Briefly: Lifespan of PINK1^B9 flies. In kind it is in vivo, Drosophila. To be noted: 1 mM in medium, male flies.
Description: The flies were cultured on a conventional fly medium under controlled conditions of 25 ± 1 °C and 60% relative humidity. The traditional medium for cultivating flies was prepared by boiling 90 g of yeast, 240 g of corn flour, 32 g of agar, 189 g of glucose, and 98 g of sucrose, as well as adding a preservative solution consisting of 25 mL of a 10% methyl-4-hydroxybenzoate in distilled water to make a final volume of 3.5 L. The experimental medium was prepared by supplementing formula 4–24 instant Drosophila medium (Carolina Biological Supply Company, Burlington, NC, USA) with a concentration of 0.1 mM peptide. Male individuals of both wild-type (WT) and PINK1^B9 flies were collected for subsequent experiments.
The newly hatched male WT flies and male PINK1^B9 mutants were collected simultaneously, followed by their division into four groups with 4 bottles per group and 40 flies per bottle. The first group was provided with WT flies and fed with formula 4–24 instant drosophila medium. The second group consisted of PINK1^B9 flies and was also fed with formula 4–24 instant drosophila medium. The third group comprised PINK1^B9 flies and received formula 4–24 instant drosophila medium supplemented with 0.1 mM peptide. […] Fresh medium was replaced every 2–3 days, while the number of flies was recorded daily.
The subject of test [2] is PINK1^B9 flies. Also noted: method as in PMID 30248358. The conditions noted are these: cited from earlier work.
In test [3] the test system is MPP^+-damaged SH-SY5Y cells. As to the kind of experiment: CCK-8 viability, neuroprotection of MPP+-damaged SH-SY5Y cells. Type of test: cell-based, human. To be noted: 100 μM. How it is done:
The SH-SY5Y human neuroblastoma cell line is extensively employed as a prominent cellular model for PD [31]. The neuroprotective effect of earthworm peptides against the MPP^+-damaged SH-SHY5Y cell model was evaluated using the CCK-8 method. First, the SH-SHY5Y cells were cultured in DMEM/F12 medium supplemented with 10% fetal bovine serum (FBS) and 1% penicillin–streptomycin, and they were maintained at a temperature of 37 °C with a CO2 concentration of 5% in a humidified atmosphere. The SH-SHY5Y cells were seeded into 96-well plates at a density of 1 × 10^4 cells per well, followed by incubation at 37 °C for 24 h. Subsequently, the initial medium was carefully aspirated. The peptide samples were dissolved in DMSO to prepare a high-concentration stock solution and then diluted to the required concentration (10, 25, 50, 100, and 150 μM), prepared using a medium, where they were subsequently introduced into the well and incubated at 37 °C for a duration of 2 h. Then, the cells were treated with MPP^+ (2 mM) per well for an additional 24 h. […] Following the completion of the experiment, the 96-well plate was extracted, and the absorbance was measured at 450nm by the […] GO spectrophotometric plate reader (Thermo Scientific, Waltham, MA, USA). The data were analyzed using GraphPad Prism, version 6.0.

Another test relates to SH-SY5Y cells. To be noted: cited from earlier work. The source says: (§1) Earthworm is used in traditional Chinese medicine as an animal-derived remedy. Its protein content and amino acid composition are better than those of fish, cow milk, and soybean meal. […] Moreover, its essential amino acid utilization rate is higher in the body and is more readily assimilated by the human system. Therefore, it is used as a supplement in animal feed and human food. Earthworm has been recorded in the Chinese medical classics of “ ...

The test system of the next test is inflammatory enzymes. To be noted: in vitro and in vivo; cited from earlier work.
Source text: as §1

Test [4] deals with PTEN-induced putative kinase 1 (PINK1) (UniProt D6WMX4).
The mark [5] stands for this setting: ubiquitin substrate, 10 μM ATP, pH 7.5 Tris-HCl, 25 °C, 10 min, residual ATP luminescence, mean ± SD (n = 3).

The EC50 is the concentration that produces a half-maximal response.

The molecule `Oc1ccc(/C=C/c2cc(O)cc(O)c2)cc1` [Resveratrol, resveratrol] displayed a PINK1 agonistic rate at PINK1 (setting [5]) of 91.45 ± 0.34%. The EC50 at PINK1 (ubiquitin substrate, 10 μM ATP, pH 7.5 Tris-HCl, 25 °C, 10 min, residual ATP luminescence, mean ± SD (n = 3), read-out: EC50, PINK1 agonistic activity) was found to be 13.8 ± 0.58 µM. Further, in the test on PINK1^B9 flies [1], the “lifespan extension of PINK1^B9 flies” value came out at 23.33%. Further, the “lifespan of PINK1^B9 flies (in words)” value in the test on PINK1^B9 flies [2] (0.2 mM resveratrol) was “no significant effect”; with PINK1^B9 flies [2] (1 mM resveratrol), “effective in extending the lifespan”.
“AGFAGDDAPR [peptide identified from earthworm (Lumbricus terrestris), synthesized by solid phase]” yielded a PINK1 agonistic rate on PINK1 (setting [5]) of 33.45 ± 0.45%.
On to AVFPSIVGR, for which the “cell viability (restored to)” value in test [3] (2 h pre-incubation, then 2 mM MPP^+ 24 h, 37 °C, CCK-8, absorbance 450 nm, n = 3) turned out to be 68.77%. At PINK1, this molecule yielded an EC50 of 88.5 ± 0.97 µM. This molecule displayed a PINK1 agonistic rate on PINK1 (setting [5]) of 50.35 ± 0.72%.
On to GYSFTTTAER, for which the “cell viability (restored to)” value in test [3] (2 h) amounted to 70.08%. Further, the EC50 at PINK1 was 76.8 ± 1.3 µM. Moreover, on PINK1 (setting [5]), the PINK1 agonistic rate was 52.46 ± 0.96%.
In the case of “ILLIILI [peptide identified from earthworm (Lumbricus terrestris), synthesized by solid phase]”, at PINK1 (setting [5]), the PINK1 agonistic rate is 17.16 ± 0.55%.
Regarding QLICWRRFR [LumA5, lumbricusin analog 5], the “viability of SH-SY5Y cells” value with SH-SY5Y cells was “improved”. For the same molecule, the “expression of lip-induced inflammatory enzymes” value in the test with inflammatory enzymes was “significantly reduce”.
As for “RNRRWCIDQQA [lumbricusin, antimicrobial peptide derived from earthworm]”, the “apoptosis and decreased viability induced by MPP^+” value in the test with SH-SY5Y cells (SH-SY5Y) is recorded as “inhibits”. The SH-SY5Y cell proliferation result in the test with SH-SY5Y cells was “promotes”.
Turning to GYSFTTTAER, in test [4], the EC50 of PINK1 agonistic activity; ATP consumed by purified PINK1 with ubiquitin as substrate (Kinase-Lumi luminescent kinase assay) amounted to 76.8 µM and the PINK1 agonistic rate (%) at 100 μM peptide; ATP consumed by purified PINK1 with ubiquitin as substrate (Kinase-Lumi luminescent kinase assay) turned out to be 52.5%.
In test [4], AVFPSIVGR came in with an EC50 of PINK1 agonistic activity; ATP consumed by purified PINK1 with ubiquitin as substrate (Kinase-Lumi luminescent kinase assay) of 88.5 µM and a PINK1 agonistic rate (%) at 100 μM peptide; ATP consumed by purified PINK1 with ubiquitin as substrate (Kinase-Lumi luminescent kinase assay) of 50.4%.
Regarding AGFAGDDAPR, the PINK1 agonistic rate (%) at 100 μM peptide; ATP consumed by purified PINK1 with ubiquitin as substrate (Kinase-Lumi luminescent kinase assay) in test [4] turned out to be 33.5%.
Still for that read-out and setting: with ILLIILI the figure was 17.2%.
